Laboratory results reported in ChEMBL document CHEMBL3352178, “Antidepressant- and anxiolytic-like activity of 7-phenylpiperazinylalkyl-1,3-dimethyl-purine-2,6-dione derivatives with diversified 5-HT₁A receptor functional profile” (Bioorg Med Chem, 2015).
Active and inactive are the calls of the source. No cut-off for these calls is given here.

What was measured:
Mus musculus [1] = experiment: Antidepressant-like activity in mouse assessed as reduction in immobility time at 0.625 mg/kg, ip dosed 60 mins before test by forced swim test; type: functional; set-up: scale not given: the % may be the effect or the level left; conditions: route intraperitoneal
Mus musculus [2] = experiment: Antidepressant-like activity in mouse assessed as reduction in immobility time at 1.25 mg/kg, ip dosed 60 mins before test by forced swim test; type: functional; set-up: scale not given: the % may be the effect or the level left; conditions: route intraperitoneal
Mus musculus [3] = experiment: Effect on spontaneous locomotor activity in ip dosed mouse during 2 to 6 mins; type: ADME, organism-based; conditions: in vivo
Mus musculus [4] = experiment: Antidepressant-like activity in mouse assessed as reduction in immobility time at 0.625 mg/kg, ip dosed 60 mins before test in presence of 0.3 mg/kg, sc 5HT1A receptor antagonist WAY 100635 by forced swim test; type: functional, organism-based
[5] = molecular target: T1, 5-hydroxytryptamine receptor 1A (Rattus norvegicus, UniProt P19327); experiment: Displacement of [3H]-8-OH-DPAT from 5-HT1AR in rat hippocampus; type: tissue-based
T1 sequence (P19327 whole entry): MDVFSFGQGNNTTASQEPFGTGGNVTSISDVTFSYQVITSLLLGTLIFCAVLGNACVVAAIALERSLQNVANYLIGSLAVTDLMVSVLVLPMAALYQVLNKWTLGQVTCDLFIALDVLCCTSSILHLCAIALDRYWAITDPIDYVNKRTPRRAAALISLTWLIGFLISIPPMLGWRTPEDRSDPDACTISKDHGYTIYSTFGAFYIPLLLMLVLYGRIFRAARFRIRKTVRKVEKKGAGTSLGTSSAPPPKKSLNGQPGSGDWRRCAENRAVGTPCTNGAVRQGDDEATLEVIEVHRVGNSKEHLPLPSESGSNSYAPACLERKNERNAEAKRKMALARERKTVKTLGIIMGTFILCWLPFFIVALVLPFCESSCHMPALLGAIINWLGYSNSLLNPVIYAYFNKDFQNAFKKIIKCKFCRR

[6] = molecular target: 5-hydroxytryptamine receptor 2A (Rattus norvegicus, UniProt P14842); experiment: Displacement of [3H]-ketanserin from 5-HT2AR in rat cortex
Sequence of 5-hydroxytryptamine receptor 2A (P14842 whole entry): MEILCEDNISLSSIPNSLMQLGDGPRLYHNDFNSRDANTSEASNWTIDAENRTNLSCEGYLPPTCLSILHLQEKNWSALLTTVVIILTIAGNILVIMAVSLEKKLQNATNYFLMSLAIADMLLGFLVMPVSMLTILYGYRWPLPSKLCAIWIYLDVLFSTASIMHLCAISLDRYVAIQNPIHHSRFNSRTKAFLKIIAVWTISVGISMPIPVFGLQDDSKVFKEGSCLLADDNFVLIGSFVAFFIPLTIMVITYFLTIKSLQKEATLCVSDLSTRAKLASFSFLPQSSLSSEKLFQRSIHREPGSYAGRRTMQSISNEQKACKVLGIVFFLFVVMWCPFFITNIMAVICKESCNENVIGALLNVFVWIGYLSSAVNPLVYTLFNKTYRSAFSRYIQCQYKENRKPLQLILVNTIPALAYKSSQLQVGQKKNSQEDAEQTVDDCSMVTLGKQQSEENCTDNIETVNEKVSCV

[7] = molecular target: 5-hydroxytryptamine receptor 6 (Homo sapiens, UniProt P50406); experiment: Displacement of [3H]LSD from human cloned 5-HT6R expressed in HEK293 cells; type: cell-based
Sequence of 5-hydroxytryptamine receptor 6 (P50406 whole entry): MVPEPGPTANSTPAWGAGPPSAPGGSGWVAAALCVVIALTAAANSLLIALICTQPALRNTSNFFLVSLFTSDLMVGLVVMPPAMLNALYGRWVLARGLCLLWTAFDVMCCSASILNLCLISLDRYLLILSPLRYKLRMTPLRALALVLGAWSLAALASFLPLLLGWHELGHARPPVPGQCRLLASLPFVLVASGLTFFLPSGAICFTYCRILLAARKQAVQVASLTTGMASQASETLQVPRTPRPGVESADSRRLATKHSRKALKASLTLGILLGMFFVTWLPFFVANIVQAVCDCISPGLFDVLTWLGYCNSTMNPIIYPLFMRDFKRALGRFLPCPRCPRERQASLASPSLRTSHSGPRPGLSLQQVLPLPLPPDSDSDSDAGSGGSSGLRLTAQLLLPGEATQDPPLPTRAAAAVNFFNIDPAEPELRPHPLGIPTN

[8] = molecular target: 5-hydroxytryptamine receptor 7 (Homo sapiens, UniProt P34969); experiment: Displacement of [3H]]-5-CT from human cloned 5-HT7R expressed in HEK293 cells; type: cell-based
Sequence of 5-hydroxytryptamine receptor 7 (P34969 whole entry): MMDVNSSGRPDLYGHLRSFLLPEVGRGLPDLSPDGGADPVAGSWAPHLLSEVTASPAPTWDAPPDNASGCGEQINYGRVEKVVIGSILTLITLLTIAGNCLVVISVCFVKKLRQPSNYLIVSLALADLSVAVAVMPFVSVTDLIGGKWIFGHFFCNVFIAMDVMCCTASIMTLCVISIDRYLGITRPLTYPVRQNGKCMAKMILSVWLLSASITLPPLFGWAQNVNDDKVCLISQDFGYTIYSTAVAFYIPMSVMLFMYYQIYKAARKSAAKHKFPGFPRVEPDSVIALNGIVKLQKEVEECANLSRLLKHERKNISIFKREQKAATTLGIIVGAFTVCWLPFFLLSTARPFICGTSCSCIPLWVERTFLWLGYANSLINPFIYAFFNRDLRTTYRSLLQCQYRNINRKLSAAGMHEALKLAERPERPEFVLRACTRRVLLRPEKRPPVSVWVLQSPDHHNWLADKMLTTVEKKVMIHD

D(2) dopamine receptor = D(2) dopamine receptor (Rattus norvegicus, UniProt P61169); experiment: Displacement of [3H]-spiperone from dopamine D2 receptor in rat striatum
Sequence of D(2) dopamine receptor (P61169 whole entry): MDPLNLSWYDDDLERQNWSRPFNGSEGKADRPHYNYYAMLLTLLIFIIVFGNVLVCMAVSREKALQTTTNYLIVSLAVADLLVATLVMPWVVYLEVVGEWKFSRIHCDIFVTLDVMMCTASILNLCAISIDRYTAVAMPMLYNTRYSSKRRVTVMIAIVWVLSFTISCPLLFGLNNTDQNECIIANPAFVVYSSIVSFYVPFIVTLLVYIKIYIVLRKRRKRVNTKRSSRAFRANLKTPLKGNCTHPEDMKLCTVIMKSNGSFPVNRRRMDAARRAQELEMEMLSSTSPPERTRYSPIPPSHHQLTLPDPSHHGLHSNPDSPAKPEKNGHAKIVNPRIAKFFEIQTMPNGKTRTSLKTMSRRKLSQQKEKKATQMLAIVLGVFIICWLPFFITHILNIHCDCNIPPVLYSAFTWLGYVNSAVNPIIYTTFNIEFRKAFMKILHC

Mus musculus [9] = experiment: Induction of hypothermia in mouse assessed as change in body temperature at 5 mg/kg, ip administered 30 mins before test and measured 30 mins post dose; type: functional, organism-based; set-up: dose 5 mg/kg
Mus musculus [10] = experiment: Induction of hypothermia in mouse assessed as change in body temperature at 10 mg/kg, ip administered 30 mins before test and measured 30 mins post dose; type: functional, organism-based; set-up: dose 10 mg/kg
Mus musculus [11] = experiment: Induction of hypothermia in mouse assessed as change in body temperature at 5 mg/kg, ip administered 30 mins before test and measured 60 mins post dose; type: functional, organism-based; set-up: dose 5 mg/kg
Mus musculus [12] = experiment: Induction of hypothermia in mouse assessed as change in body temperature at 10 mg/kg, ip administered 30 mins before test and measured 60 mins post dose; type: functional, organism-based; set-up: dose 10 mg/kg
Mus musculus [13] = experiment: Induction of hypothermia in mouse assessed as change in body temperature at 5 mg/kg, ip administered 30 mins before test and measured 90 mins post dose; type: functional, organism-based; set-up: dose 5 mg/kg
Mus musculus [14] = experiment: Induction of hypothermia in mouse assessed as change in body temperature at 10 mg/kg, ip administered 30 mins before test and measured 90 mins post dose; type: functional, organism-based; set-up: dose 10 mg/kg
Mus musculus [15] = experiment: Induction of hypothermia in mouse assessed as change in body temperature at 5 mg/kg, ip administered 30 mins before test and measured 120 mins post dose; type: functional, organism-based; set-up: dose 5 mg/kg
Mus musculus [16] = experiment: Induction of hypothermia in mouse assessed as change in body temperature at 10 mg/kg, ip administered 30 mins before test and measured 120 mins post dose; type: functional, organism-based; set-up: dose 10 mg/kg
Mus musculus [17] = experiment: Induction of hypothermia in mouse assessed as change in body temperature at 10 mg/kg, ip administered 30 mins before test and measured 30 mins post dose in presence of 0.3 mg/kg, sc 5HT1A receptor antagonist WAY 100635; type: functional, organism-based
Mus musculus [18] = experiment: Induction of hypothermia in mouse assessed as change in body temperature at 10 mg/kg, ip administered 30 mins before test and measured 60 mins post dose in presence of 0.3 mg/kg, sc 5HT1A receptor antagonist WAY 100635; type: functional, organism-based
Rattus norvegicus [19] = experiment: Induction of lower lip retraction in rat assessed as lower lip retraction scores at 5 mg/kg, ip dosed 15 mins before test; type: functional; conditions: route intraperitoneal
Rattus norvegicus [20] = experiment: Induction of lower lip retraction in rat assessed as lower lip retraction scores at 10 mg/kg, ip dosed 15 mins before test; type: functional; conditions: route intraperitoneal
Rattus norvegicus [21] = experiment: Inhibition of 8-OH-DPAT-induced lower lip retraction in rat assessed as lower lip retraction scores at 5 mg/kg, ip dosed 45 mins before 8-OH-DPAT; type: functional; conditions: route intraperitoneal
Rattus norvegicus [22] = experiment: Induction of lower lip retraction in rat assessed as lower lip retraction scores at 10 mg/kg, ip dosed 45 mins after 0.3 mg/kg, sc 5HT1A receptor antagonist WAY 100635; type: functional
Mus musculus [23] = experiment: Inhibition of (+/-)-DOI-induced head twitch response in mouse dosed intraperitoneally 60 mins before (+/-)-DOI injection; type: functional
Mus musculus [24] = experiment: Anxiolytic-like activity in mouse assessed as increase in number of punished crossings at 20 mg/kg, ip dosed 60 mins before test by four plate test; type: functional; conditions: route intraperitoneal
Mus musculus [25] = experiment: Effect on spontaneous locomotor activity in mouse at 20 mg/kg, ip; type: ADME, organism-based; set-up: dose 20 mg/kg, route intraperitoneal; conditions: in vivo
Mus musculus [26] = experiment: Anxiolytic-like activity in mouse assessed as increase in number of punished crossings at 20 mg/kg, ip dosed 60 mins before test in presence of 0.3 mg/kg, sc 5HT1A receptor antagonist WAY 100635 by four plate test; type: functional, organism-based
Mus musculus [27] = experiment: Antidepressant-like activity in mouse assessed as reduction in immobility time at 5 mg/kg, ip dosed 60 mins before test by forced swim test; type: functional; set-up: scale not given: the % may be the effect or the level left; conditions: route intraperitoneal
Mus musculus [28] = experiment: Antidepressant-like activity in mouse assessed as reduction in immobility time at 10 mg/kg, ip dosed 60 mins before test by forced swim test; type: functional; set-up: scale not given: the % may be the effect or the level left; conditions: route intraperitoneal
Mus musculus [29] = experiment: Antidepressant-like activity in mouse assessed as reduction in immobility time at 5 mg/kg, ip dosed 60 mins before test in presence of 0.3 mg/kg, sc 5HT1A receptor antagonist WAY 100635 by forced swim test; type: functional, organism-based
Mus musculus [30] = experiment: Induction of hypothermia in mouse assessed as change in body temperature at 2.5 mg/kg, ip administered 30 mins before test and measured 30 mins post dose; type: functional, organism-based; set-up: dose 2.5 mg/kg
Mus musculus [31] = experiment: Induction of hypothermia in mouse assessed as change in body temperature at 2.5 mg/kg, ip administered 30 mins before test and measured 60 mins post dose; type: functional, organism-based; set-up: dose 2.5 mg/kg
Mus musculus [32] = experiment: Induction of hypothermia in mouse assessed as change in body temperature at 2.5 mg/kg, ip administered 30 mins before test and measured 90 mins post dose; type: functional, organism-based; set-up: dose 2.5 mg/kg
Mus musculus [33] = experiment: Induction of hypothermia in mouse assessed as change in body temperature at 2.5 mg/kg, ip administered 30 mins before test and measured 120 mins post dose; type: functional, organism-based; set-up: dose 2.5 mg/kg
Mus musculus [34] = experiment: Induction of hypothermia in mouse assessed as change in body temperature at 5 mg/kg, ip administered 30 mins before test and measured 30 mins post dose in presence of 0.3 mg/kg, sc 5HT1A receptor antagonist WAY 100635; type: functional, organism-based
Mus musculus [35] = experiment: Induction of hypothermia in mouse assessed as change in body temperature at 5 mg/kg, ip administered 30 mins before test and measured 60 mins post dose in presence of 0.3 mg/kg, sc 5HT1A receptor antagonist WAY 100635; type: functional, organism-based
Mus musculus [36] = experiment: Induction of hypothermia in mouse assessed as change in body temperature at 2.5 mg/kg, ip administered 30 mins before test and measured 30 mins post dose in presence of 0.3 mg/kg, sc 5HT1A receptor antagonist WAY 100635; type: functional, organism-based
Mus musculus [37] = experiment: Induction of hypothermia in mouse assessed as change in body temperature at 2.5 mg/kg, ip administered 30 mins before test and measured 60 mins post dose in presence of 0.3 mg/kg, sc 5HT1A receptor antagonist WAY 100635; type: functional, organism-based
Rattus norvegicus [38] = experiment: Induction of lower lip retraction in rat assessed as lower lip retraction scores at 0.5 mg/kg, ip dosed 15 mins before test; type: functional; conditions: route intraperitoneal
Rattus norvegicus [39] = experiment: Induction of lower lip retraction in rat assessed as lower lip retraction scores at 1 mg/kg, ip dosed 15 mins before test; type: functional; conditions: route intraperitoneal
Rattus norvegicus [40] = experiment: Induction of lower lip retraction in rat assessed as lower lip retraction scores at 1 mg/kg, ip dosed 45 mins after 0.3 mg/kg, sc 5HT1A receptor antagonist WAY 100635; type: functional
Mus musculus [41] = experiment: Inhibition of (+/-)-DOI-induced head twitch response in mouse assessed as head twitches per 20 mins at 2.5 mg/kg, ip dosed 60 mins before (+/-)-DOI injection (reference value: 21.6 +/- 3.4/20 mins); type: functional; conditions: route intraperitoneal
Mus musculus [42] = experiment: Inhibition of (+/-)-DOI-induced head twitch response in mouse assessed as head twitches per 20 mins at 5 mg/kg, ip dosed 60 mins before (+/-)-DOI injection (reference value: 21.6 +/- 3.4/20 mins); type: functional; conditions: route intraperitoneal
Mus musculus [43] = experiment: Inhibition of (+/-)-DOI-induced head twitch response in mouse assessed as head twitches per 20 mins at 10 mg/kg, ip dosed 60 mins before (+/-)-DOI injection (reference value: 21.6 +/- 3.4/20 mins); type: functional; conditions: route intraperitoneal
Mus musculus [44] = experiment: Inhibition of (+/-)-DOI-induced head twitch response in mouse assessed as head twitches per 20 mins at 20 mg/kg, ip dosed 60 mins before (+/-)-DOI injection (reference value: 21.6 +/- 3.4/20 mins); type: functional; conditions: route intraperitoneal

## COc1ccccc1N1CCN(CCCCCn2cnc3c2c(=O)n(C)c(=O)n3C)CC1.Cl
Mus musculus [1]
  Activity: 30%
Mus musculus [2]
  Activity: 35%
Mus musculus [3]
  Activity: Non-toxic
Mus musculus [4]
  Activity: inactive
[5]
  Ki: 1 nM
[6]
  Ki: 598 nM
[7]
  Ki: 8990 nM
[8]
  Ki: 294 nM
D(2) dopamine receptor
  Ki: 33 nM
Mus musculus [9]
  deltaT: -1 °C
Mus musculus [10]
  deltaT: -2.1 °C
Mus musculus [11]
  deltaT: -0.2 °C
Mus musculus [12]
  deltaT: -1 °C
Mus musculus [13]
  deltaT: 0.3 °C
Mus musculus [14]
  deltaT: -0.9 °C
Mus musculus [15]
  deltaT: 0.3 °C
Mus musculus [16]
  deltaT: -0.4 °C
Mus musculus [17]
  deltaT: -1.8 °C
Mus musculus [18]
  deltaT: -1.6 °C
Rattus norvegicus [19]
  Activity: 0.6
Rattus norvegicus [20]
  Activity: 0.8
Rattus norvegicus [21]
  Activity: 2.1
Rattus norvegicus [22]
  Activity: 0.1

## Cl.Cn1c(=O)c2c(ncn2CCCCN2CCN(c3cccc(Cl)c3)CC2)n(C)c1=O
Mus musculus [23]
  inhibition: Dose-dependent effect
Mus musculus [23]; ip, read-out: ID50 (the source's name)
  ED50: 5.09 mg/kg
Mus musculus [24]
  Activity: 57%
Mus musculus [25]
  Activity: Non-toxic
Mus musculus [26]
  Activity: inactive
Mus musculus [27]
  Activity: 37%
Mus musculus [28]
  Activity: 30%
Mus musculus [3]
  Activity: Non-toxic
Mus musculus [29]
  Activity: inactive
[5]
  Ki: 1 nM
[6]
  Ki: 102 nM
[7]
  Ki: 5150 nM
[8]
  Ki: 479 nM
D(2) dopamine receptor
  Ki: 195 nM
Mus musculus [30]
  deltaT: -1.8 °C
Mus musculus [9]
  deltaT: -2.1 °C
Mus musculus [10]
  deltaT: -2 °C
Mus musculus [31]
  deltaT: -0.8 °C
Mus musculus [11]
  deltaT: -1.1 °C
Mus musculus [12]
  deltaT: -1.7 °C
Mus musculus [32]
  deltaT: -0.1 °C
Mus musculus [13]
  deltaT: -0.6 °C
Mus musculus [14]
  deltaT: -1.3 °C
Mus musculus [33]
  deltaT: 0 °C
Mus musculus [15]
  deltaT: -0.2 °C
Mus musculus [16]
  deltaT: 0.8 °C
Mus musculus [34]
  deltaT: -1.5 °C
Mus musculus [35]
  deltaT: -0.6 °C
Mus musculus [36]
  deltaT: -0.8 °C
Mus musculus [37]
  deltaT: -0.2 °C
Rattus norvegicus [38]
  Activity: 0.3
Rattus norvegicus [39]
  Activity: 1.5
Rattus norvegicus [40]
  Activity: 0.1
Mus musculus [41]
  Activity: 11
Mus musculus [42]
  Activity: 7.7
Mus musculus [43]
  Activity: 3.8
Mus musculus [44]
  Activity: 3.2
